The record followed here is PMC11233931, “Remodeling tumor‐associated macrophage for anti‐cancer effects by rational design of irreversible inhibition of mitogen‐activated protein kinase‐activated protein kinase 2” (MedComm, 2024).

Molecules are shown by their SMILES.

What all share (test): Eurofins kinase selectivity profile against 380 other human recombinant kinases (Table S2)
What all share (format): biochemical

Assay [1] addresses T1, 380 human recombinant protein kinases (Homo sapiens, UniProt P51812).
T1 construct: purchased Eurofins (Celle Lévescault)
Particulars: Rsk2(h), read-out: Inhibition rate (%). Summed up:
(§1)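 Values come from a contract kinase-profiling service that tested the compound at multiple concentrations across 380 recombinant human kinases, as an off-target check against the MK2 activity.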

The target in assay [2] is T2, 380 human recombinant protein kinases (Homo sapiens, UniProt P52333).
T2 construct: purchased Eurofins (Celle Lévescault)
T2 sequence (P52333 1-1124): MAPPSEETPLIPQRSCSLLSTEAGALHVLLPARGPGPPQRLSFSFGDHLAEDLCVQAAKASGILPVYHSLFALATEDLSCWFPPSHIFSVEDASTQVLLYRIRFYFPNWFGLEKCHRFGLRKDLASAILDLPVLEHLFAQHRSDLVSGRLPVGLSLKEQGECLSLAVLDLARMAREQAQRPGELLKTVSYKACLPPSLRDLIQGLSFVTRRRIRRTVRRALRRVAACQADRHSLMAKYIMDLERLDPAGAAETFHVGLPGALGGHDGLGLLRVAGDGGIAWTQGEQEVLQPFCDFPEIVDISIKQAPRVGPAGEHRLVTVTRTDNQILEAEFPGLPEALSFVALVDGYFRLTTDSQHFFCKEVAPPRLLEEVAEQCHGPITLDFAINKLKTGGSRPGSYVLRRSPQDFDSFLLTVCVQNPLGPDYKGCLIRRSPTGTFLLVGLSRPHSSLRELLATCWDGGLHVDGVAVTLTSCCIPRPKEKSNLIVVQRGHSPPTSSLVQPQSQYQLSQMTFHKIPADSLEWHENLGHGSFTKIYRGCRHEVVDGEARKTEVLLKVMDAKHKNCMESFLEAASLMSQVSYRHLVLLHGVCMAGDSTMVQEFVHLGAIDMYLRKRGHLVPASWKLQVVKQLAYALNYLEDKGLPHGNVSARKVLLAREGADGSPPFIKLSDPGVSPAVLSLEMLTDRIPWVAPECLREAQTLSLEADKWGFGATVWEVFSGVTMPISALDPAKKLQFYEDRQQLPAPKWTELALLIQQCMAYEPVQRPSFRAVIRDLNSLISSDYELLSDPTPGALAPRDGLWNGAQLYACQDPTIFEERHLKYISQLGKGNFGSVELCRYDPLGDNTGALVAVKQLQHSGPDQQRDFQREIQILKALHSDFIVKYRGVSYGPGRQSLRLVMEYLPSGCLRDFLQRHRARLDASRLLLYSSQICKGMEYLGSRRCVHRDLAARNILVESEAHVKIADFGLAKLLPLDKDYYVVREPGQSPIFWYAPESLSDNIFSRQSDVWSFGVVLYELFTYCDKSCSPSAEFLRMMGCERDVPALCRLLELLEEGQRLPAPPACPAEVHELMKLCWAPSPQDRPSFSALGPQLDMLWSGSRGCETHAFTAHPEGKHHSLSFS
The settings on record: JAK3(h), read-out: Inhibition rate. Summed up:
as §1

Assay [3] has as its target T3, 380 human recombinant protein kinases (Homo sapiens, UniProt Q08345).
T3 construct: purchased Eurofins (Celle Lévescault)
Particulars: DDR1(h), read-out: Inhibition rate. Summed up: as §1

Assay [4] deals with T4, 380 human recombinant protein kinases (Homo sapiens, UniProt Q14004).
T4 construct: purchased Eurofins (Celle Lévescault)
Particulars: CDK13/cyclinK(h), read-out: Inhibition rate. Summed up: as §1

For assay [5], the target named is T5, 380 human recombinant protein kinases (Homo sapiens, UniProt Q92519).
T5 construct: purchased Eurofins (Celle Lévescault)
T5 sequence (Q92519 1-343): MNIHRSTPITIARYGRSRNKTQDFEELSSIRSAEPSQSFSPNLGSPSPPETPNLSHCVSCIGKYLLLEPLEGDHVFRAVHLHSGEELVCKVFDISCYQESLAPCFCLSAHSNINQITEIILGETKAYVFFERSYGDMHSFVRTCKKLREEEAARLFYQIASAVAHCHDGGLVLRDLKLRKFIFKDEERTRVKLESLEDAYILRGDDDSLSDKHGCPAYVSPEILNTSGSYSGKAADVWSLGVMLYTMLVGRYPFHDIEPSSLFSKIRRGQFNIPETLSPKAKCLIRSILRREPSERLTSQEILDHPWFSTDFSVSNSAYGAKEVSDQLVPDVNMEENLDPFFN
Particulars: TRB2(h), read-out: Inhibition rate (%). Summed up: as §1

T1 sequence (P51812 whole entry): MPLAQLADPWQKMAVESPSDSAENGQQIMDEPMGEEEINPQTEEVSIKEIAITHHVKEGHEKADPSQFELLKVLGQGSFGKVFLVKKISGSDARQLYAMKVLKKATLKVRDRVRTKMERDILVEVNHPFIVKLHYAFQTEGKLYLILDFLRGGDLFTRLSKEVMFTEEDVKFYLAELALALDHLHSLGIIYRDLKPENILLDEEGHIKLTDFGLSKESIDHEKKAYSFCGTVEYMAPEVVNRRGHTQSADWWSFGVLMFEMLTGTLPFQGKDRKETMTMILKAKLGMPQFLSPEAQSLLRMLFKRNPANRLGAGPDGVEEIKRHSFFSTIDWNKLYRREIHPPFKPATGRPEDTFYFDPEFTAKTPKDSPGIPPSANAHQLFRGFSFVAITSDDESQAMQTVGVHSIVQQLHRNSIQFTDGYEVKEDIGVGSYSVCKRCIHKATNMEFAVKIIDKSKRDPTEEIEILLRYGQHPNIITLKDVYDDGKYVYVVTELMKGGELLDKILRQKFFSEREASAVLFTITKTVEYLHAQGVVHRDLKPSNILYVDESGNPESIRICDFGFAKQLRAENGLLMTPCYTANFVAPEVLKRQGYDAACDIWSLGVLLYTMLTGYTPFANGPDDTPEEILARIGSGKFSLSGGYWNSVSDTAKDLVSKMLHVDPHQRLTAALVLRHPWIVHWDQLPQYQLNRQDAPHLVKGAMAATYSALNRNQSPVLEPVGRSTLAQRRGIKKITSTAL
T4 sequence (Q14004 whole entry): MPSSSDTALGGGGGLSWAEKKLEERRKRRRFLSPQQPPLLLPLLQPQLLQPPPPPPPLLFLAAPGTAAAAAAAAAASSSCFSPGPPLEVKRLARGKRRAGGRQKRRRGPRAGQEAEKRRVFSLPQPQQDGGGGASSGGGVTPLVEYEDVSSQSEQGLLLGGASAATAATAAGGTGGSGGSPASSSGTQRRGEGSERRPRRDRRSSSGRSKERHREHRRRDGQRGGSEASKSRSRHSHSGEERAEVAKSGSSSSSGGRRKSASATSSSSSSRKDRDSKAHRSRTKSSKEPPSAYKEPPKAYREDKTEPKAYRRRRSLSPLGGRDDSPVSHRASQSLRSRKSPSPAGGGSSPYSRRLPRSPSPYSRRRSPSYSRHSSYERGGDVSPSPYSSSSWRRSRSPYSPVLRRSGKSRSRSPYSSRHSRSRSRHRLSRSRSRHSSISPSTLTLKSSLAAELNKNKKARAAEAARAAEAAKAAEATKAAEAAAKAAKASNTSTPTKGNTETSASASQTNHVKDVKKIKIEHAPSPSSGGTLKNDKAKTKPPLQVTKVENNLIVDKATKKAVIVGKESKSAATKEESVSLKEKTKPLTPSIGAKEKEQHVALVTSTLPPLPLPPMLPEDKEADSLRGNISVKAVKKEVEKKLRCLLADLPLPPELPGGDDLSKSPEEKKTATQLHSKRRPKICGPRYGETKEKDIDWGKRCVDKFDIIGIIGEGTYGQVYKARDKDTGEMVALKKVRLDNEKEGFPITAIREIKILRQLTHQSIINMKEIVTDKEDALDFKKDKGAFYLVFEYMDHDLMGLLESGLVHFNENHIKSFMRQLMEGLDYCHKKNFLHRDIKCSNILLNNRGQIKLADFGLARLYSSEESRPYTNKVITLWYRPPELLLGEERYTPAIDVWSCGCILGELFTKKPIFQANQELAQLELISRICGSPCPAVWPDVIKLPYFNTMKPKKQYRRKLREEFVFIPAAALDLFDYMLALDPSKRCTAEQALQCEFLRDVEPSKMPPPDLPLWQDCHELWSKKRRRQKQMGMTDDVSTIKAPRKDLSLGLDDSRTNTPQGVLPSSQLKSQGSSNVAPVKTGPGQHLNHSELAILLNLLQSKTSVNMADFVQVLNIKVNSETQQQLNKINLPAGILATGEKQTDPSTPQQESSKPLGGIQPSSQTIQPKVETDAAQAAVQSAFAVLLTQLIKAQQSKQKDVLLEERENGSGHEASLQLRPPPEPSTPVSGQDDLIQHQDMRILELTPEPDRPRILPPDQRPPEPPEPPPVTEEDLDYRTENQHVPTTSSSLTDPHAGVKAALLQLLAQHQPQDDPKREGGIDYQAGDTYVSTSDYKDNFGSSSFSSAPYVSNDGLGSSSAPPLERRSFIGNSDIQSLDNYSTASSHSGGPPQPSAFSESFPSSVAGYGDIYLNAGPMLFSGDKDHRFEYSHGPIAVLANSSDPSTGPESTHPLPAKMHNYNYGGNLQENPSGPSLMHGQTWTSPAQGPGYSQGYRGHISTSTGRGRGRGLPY
T3 sequence (Q08345 19-913): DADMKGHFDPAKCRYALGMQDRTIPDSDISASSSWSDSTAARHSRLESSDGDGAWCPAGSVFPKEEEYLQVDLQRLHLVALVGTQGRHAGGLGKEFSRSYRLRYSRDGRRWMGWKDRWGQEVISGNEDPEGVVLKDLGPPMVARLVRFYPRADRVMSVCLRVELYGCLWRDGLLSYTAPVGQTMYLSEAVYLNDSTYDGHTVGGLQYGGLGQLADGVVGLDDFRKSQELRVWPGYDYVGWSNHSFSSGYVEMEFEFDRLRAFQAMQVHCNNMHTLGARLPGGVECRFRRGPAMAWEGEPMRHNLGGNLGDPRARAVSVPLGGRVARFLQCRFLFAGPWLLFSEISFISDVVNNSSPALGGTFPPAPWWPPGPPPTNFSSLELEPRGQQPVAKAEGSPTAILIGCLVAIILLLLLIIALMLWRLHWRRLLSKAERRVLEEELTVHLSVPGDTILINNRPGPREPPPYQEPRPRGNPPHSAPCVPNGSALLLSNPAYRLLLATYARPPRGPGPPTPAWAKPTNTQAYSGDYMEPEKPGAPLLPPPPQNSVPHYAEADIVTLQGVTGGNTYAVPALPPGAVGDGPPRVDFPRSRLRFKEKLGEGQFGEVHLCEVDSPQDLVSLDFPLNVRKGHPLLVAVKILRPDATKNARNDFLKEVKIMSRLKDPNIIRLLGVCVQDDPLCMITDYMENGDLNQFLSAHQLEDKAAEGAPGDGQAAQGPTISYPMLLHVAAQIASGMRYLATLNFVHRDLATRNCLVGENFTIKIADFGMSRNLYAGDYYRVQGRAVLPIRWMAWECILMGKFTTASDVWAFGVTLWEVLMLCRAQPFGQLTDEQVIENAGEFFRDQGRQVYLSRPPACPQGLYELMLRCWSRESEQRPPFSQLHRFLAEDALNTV

On to `C=CC(=O)Nc1cc(-c2cc(-c3cc4c([nH]3)CCNC4=O)ccn2)ccc1OC(F)(F)F` [compound 11], for which the inhibition at 0.01 µM in assay [1] (10 nM) was -6%; in assay [2] (10 nM), 8%; in assay [3] (10 nM) it was 0%; in assay [4] (10 nM), 1%; in assay [5] (10 nM) it was 29%. Also, the inhibition at 0.1 µM in assay [1] (100 nM) is -11%; in assay [2] (100 nM) it was 5%; in assay [3] (100 nM), -1%; in assay [4] (100 nM) it was 7%; in assay [5] (100 nM), 58%. For the same molecule, the inhibition at 1 µM in assay [1] (1000 nM) was -3%; in assay [2] (1000 nM), 12%; in assay [3] (1000 nM) it was -7%; in assay [4] (1000 nM), 9%; in assay [5] (1000 nM) it was 85%.
